Measured values reported in DBAASP.
Converted amounts (≈) assume the structure as drawn.

What was measured:
Assay in all cases: ≥ marks a high value that may be exact or a test limit, other limits are often not marked, values filed in µg/mL are converted to µM
[1] = system: Cutibacterium acnes ATCC 11827
[2] = system: Cutibacterium acnes ATCC 6919
Cutibacterium acnes = system: Cutibacterium acnes
[3] = system: Staphylococcus aureus ATCC 2592
[4] = system: Staphylococcus epidermidis 09A3726
[5] = system: Staphylococcus epidermidis 09B2490
Escherichia coli BL21 = system: Escherichia coli BL21
[6] = system: Pseudomonas aeruginosa PAO1
[7] = system: Staphylococcus aureus ATCC 6538P
[8] = system: Staphylococcus aureus ATCC BAA-41
[9] = system: Staphylococcus epidermidis
Escherichia coli 078 = system: Escherichia coli 078
[10] = system: Escherichia coli ATCC 25922
Escherichia coli UB1005 = system: Escherichia coli UB1005
[11] = system: Lacticaseibacillus rhamnosus 7469
[12] = system: Pseudomonas aeruginosa ATCC 27853
[13] = system: Salmonella enterica subsp. enterica serovar Pullorum ATCC 7913
[14] = system: Salmonella enterica subsp. enterica serovar Typhimurium ATCC 14028
[15] = system: Salmonella enterica subsp. enterica serovar Typhimurium C77-31
[16] = system: Staphylococcus aureus ATCC 25923
[17] = system: Staphylococcus aureus ATCC 29213
[18] = system: Staphylococcus epidermidis ATCC 12228
[19] = system: Streptococcus agalactiae CICC 10465
Streptococcus agalactiae = system: Streptococcus agalactiae
[20] = system: Streptococcus thermophilus YM-C
[21] = system: Bacillus subtilis KCTC 1021
Escherichia coli = system: Escherichia coli
[22] = system: Klebsiella pneumoniae ATCC 10031
[23] = system: Micrococcus luteus ATCC 4698
[24] = system: Pseudomonas aeruginosa ATCC 9027
Serratia marcescens = system: Serratia marcescens
[25] = system: Shigella dysenteriae ATCC 9752
[26] = system: Candida albicans NCPF 1467
[27] = system: Enterococcus faecalis NCTC 12697
[28] = system: Escherichia coli NCTC 10418
[29] = system: Staphylococcus aureus ATCC 12493
[30] = system: Staphylococcus aureus NCTC 10788
[31] = system: Acinetobacter baumannii ATCC 19606
[32] = system: Escherichia coli D31 CGSC 5165
[33] = system: Pseudomonas aeruginosa ATCC 47085
[34] = system: Staphylococcus aureus ATCC 35556
[35] = system: Mannheimia haemolytica 82-25

Q: How did the MIC [1] turn out when `CC(C)[C@H](N)C(=O)N[C@@H](CCCCN)C(=O)N[C@@H](CCCN=C(N)N)C(=O)N[C@@H](Cc1c[nH]c2ccccc12)C(=O)N[C@@H](CCCCN)C(=O)N[C@@H](CCCCN)C(=O)N[C@@H](Cc1c[nH]c2ccccc12)C(=O)N[C@@H](Cc1c[nH]c2ccccc12)C(=O)N[C@@H](CCCN=C(N)N)C(=O)N[C@@H](CCCCN)C(=O)N[C@@H](Cc1c[nH]c2ccccc12)C(=O)N[C@@H](CCCCN)C(=O)N[C@@H](CCCCN)C(=O)N[C@@H](Cc1c[nH]c2ccccc12)C(=O)N[C@H](C(N)=O)C(C)C` [VKRWKKWWRKWKKWV] was run?
A: The MIC was 0.269 µM (≈ 0.6 µg/mL).

Q: What about the MIC [2] of the same molecule?
A: Its MIC is 0.269 µM (≈ 0.6 µg/mL).

Q: And the MIC (Cutibacterium acnes)?
A: The MIC was 0.269 µM (≈ 0.6 µg/mL).

Q: And the MIC [3]?
A: The MIC was 1.03 µM (≈ 2.3 µg/mL).

Q: What about the MIC [4] of the same molecule?
A: The MIC was 2.11 µM (≈ 4.7 µg/mL).

Q: And the MIC [5]?
A: Its MIC is 1.03 µM (≈ 2.3 µg/mL).

Q: Which MIC (Escherichia coli BL21) does the source give for `CC[C@H](C)[C@H](NC(=O)[C@H](CCCCN)NC(=O)[C@H](CCCCN)NC(=O)[C@H](Cc1ccccc1)NC(=O)[C@H](CC(C)C)NC(=O)[C@H](CCCCN)NC(=O)[C@H](Cc1c[nH]c2ccccc12)NC(=O)[C@@H](N)CCCCN)C(=O)NCC(=O)N[C@@H](C)C(=O)N[C@H](C(=O)N[C@@H](CC(C)C)C(=O)N[C@@H](CCCCN)C(=O)N[C@@H](CCCCN)C(=O)N[C@@H](CC(C)C)C(=O)O)C(C)C` [KWKLFKKIGAVLKKL] here?
A: The MIC was 2 µM (≈ 3.6 µg/mL).

Q: What about the MIC [6] of the same molecule?
A: Its MIC is 2.83 µM (≈ 5.09 µg/mL).

Q: What about the MIC [7] of the same molecule?
A: Its MIC is 5.66 µM (≈ 10.2 µg/mL).

Q: And the MIC [8]?
A: Its MIC is 8 µM (≈ 14.4 µg/mL).

Q: And the MIC [9]?
A: The MIC was 0.354 µM (≈ 0.637 µg/mL).

Q: Which results are given for `CC[C@H](C)[C@H](NC(=O)[C@H](CC(C)C)NC(=O)[C@@H](NC(=O)[C@@H](N)CC(=O)O)[C@@H](C)CC)C(=O)N[C@H](C(=O)N[C@H](C(=O)NCC(=O)NCC(=O)NCC(=O)N[C@@H](CO)C(=O)NCC(=O)N[C@@H](CCCCN)C(=O)N[C@@H](CCC(=O)O)C(=O)N[C@@H](CCCN=C(N)N)C(=O)N[C@@H](CCCCN)C(=O)N[C@@H](CCCCN)C(=O)N[C@@H](CCCN=C(N)N)C(=O)N[C@@H](CCCN=C(N)N)C(=O)N[C@@H](CCCN=C(N)N)C(N)=O)C(C)C)[C@@H](C)CC` [DILIIVGGGSGKERKKRRR]?
A: MIC (Escherichia coli 078): ≥ 64 µM; MIC [10]: > 64 µM; MIC (Escherichia coli UB1005): ≥ 64 µM; MIC [11]: ≥ 64 µM; MIC [12]: > 64 µM; MIC [13]: ≥ 64 µM; MIC [14]: > 64 µM; MIC [15]: ≥ 64 µM; MIC [16]: > 64 µM; MIC [17]: > 64 µM; MIC [18]: > 64 µM; MIC [19]: 4 µM (≈ 8.55 µg/mL); MIC (Streptococcus agalactiae): 4 µM (≈ 8.55 µg/mL); MIC [20]: ≥ 64 µM

Q: How did the MIC [21] turn out when `CC[C@H](C)[C@H](NC(=O)CN)C(=O)N[C@@H](CC(C)C)C(=O)N[C@@H](CC(=O)O)C(=O)N[C@H](C(=O)N[C@@H](CC(C)C)C(=O)N[C@@H](CCCCN)C(=O)N[C@@H](CCC(N)=O)C(=O)N[C@@H](Cc1ccccc1)C(=O)N[C@@H](C)C(=O)N[C@@H](CCCCN)C(=O)NCC(=O)N[C@H](C(=O)NCC(=O)N[C@@H](CCCCN)C(=O)N[C@@H](Cc1c[nH]c2ccccc12)C(=O)N[C@@H](CC(C)C)C(=O)N[C@H](C(=O)N[C@@H](CCCCN)C(=O)NCC(=O)N[C@@H](C)C(=O)N[C@@H](C)C(=O)N[C@@H](CCC(N)=O)C(=O)O)C(C)C)C(C)C)[C@@H](C)O` [GILDTLKQFAKGVGKWLVKGAAQ] was run?
A: The MIC was 10.3 µM (≈ 25 µg/mL).

Q: And the MIC (Escherichia coli)?
A: The MIC was 10.3 µM (≈ 25 µg/mL).

Q: What about the MIC [22] of the same molecule?
A: The MIC was 10.3 µM (≈ 25 µg/mL).

Q: What about the MIC [23] of the same molecule?
A: Its MIC is 1.03 µM (≈ 2.5 µg/mL).

Q: What about the MIC [24] of the same molecule?
A: Its MIC is 51.5 µM (≈ 125 µg/mL).

Q: And the MIC [14]?
A: Its MIC is 51.5 µM (≈ 125 µg/mL).

Q: What about the MIC (Serratia marcescens) of the same molecule?
A: Its MIC is at least 82.3 µM.

Q: And the MIC [25]?
A: The MIC was 20.6 µM (≈ 50 µg/mL).

Q: Which results are given for `CC[C@H](C)[C@H](NC(=O)[C@H](CCCCN)NC(=O)[C@@H]1CCCN1C(=O)[C@H](CC(C)C)NC(=O)[C@@H](N)Cc1ccccc1)C(=O)N[C@@H](CC(C)C)C(=O)N[C@@H](CCCCN)C(=O)N[C@H](C(=O)N[C@@H](C)C(=O)N[C@@H](C)C(=O)N[C@@H](CCCCN)C(N)=O)C(C)C` [FLPKILKVAAK]?
A: MIC [26]: ≥ 256 µM; MIC [27]: ≥ 512 µM; MIC [28]: ≥ 512 µM; MIC [12]: > 512 µM; MIC [29]: ≥ 512 µM; MIC [30]: ≥ 256 µM

Q: What does the source list for `CC[C@H](C)[C@H](NC(=O)[C@H](CCCCN)NC(=O)CNC(=O)[C@H](CC(C)C)NC(=O)[C@@H](NC(=O)[C@H](C)NC(=O)[C@H](CCCCN)NC(=O)CNC(=O)[C@H](C)NC(=O)CNC(=O)[C@H](CCCCN)NC(=O)[C@H](CCSC)NC(=O)[C@H](CCCCN)NC(=O)[C@@H](NC(=O)[C@H](Cc1c[nH]c2ccccc12)NC(=O)[C@H](CC(C)C)NC(=O)[C@H](CCCCN)NC(=O)[C@H](CCCCN)NC(=O)[C@H](CC(C)C)NC(=O)[C@@H](N)CC(C)C)[C@@H](C)O)C(C)C)C(=O)N[C@@H](CCCCN)C(=O)NCC(=O)N[C@@H](CC(C)C)C(=O)N[C@@H](CC(C)C)C(=O)O` [LLKKLWTKMKGAGKAVLGKIKGLL]?
A: MIC [31]: 0.94 µM (≈ 2.44 µg/mL); MIC [32]: 1.88 µM (≈ 4.88 µg/mL); MIC [33]: 3.75 µM (≈ 9.73 µg/mL); MIC [34]: 3.75 µM (≈ 9.73 µg/mL)

Q: Which MIC [35] does the source give for `C[C@H](NC(=O)CN)C(=O)N[C@@H](CC(=O)O)C(=O)N[C@@H](CC(=O)O)C(=O)N[C@@H](CC(=O)O)C(=O)N[C@@H](CC(=O)O)C(=O)N[C@@H](CC(=O)O)C(=O)O` [GADDDDD] here?
A: The MIC was 30 µM (≈ 21.6 µg/mL).
